Reference: patent US4918066A, “Substituted 4-benzylpiperazinyl compounds” (Ciba-Geigy Corporation, priority 1989, dated 1990)
≈ marks a conversion by molar mass, not a printed value.

Tests used:
[1] = test system: Mycobacterium tuberculosis TB H3 Rv; assay: Activity against Mycobacterium tuberculosis TB H3 Rv in vitro, MIC (Table 1); assay type: cell-based; conditions: TBH3RV, read-out: MIC (minimum inhibitory concentration)
Excerpt: (a) minimum inhibitory concentration (1 mcg = 1.10^-5 g)

[2] = test system: Mycobacterium tuberculosis TB H3 Rv; assay: Activity against Mycobacterium tuberculosis TB H3 Rv, ED50 p.o. (Table 1); assay type: in vivo; conditions: TBH3RV, po
[3] = Pharmacokinetics in mice (Table 1); assay type: in vivo; conditions: mouse; for half-life: in vivo, read-out: t/2 (halflife of the elimination) (converted); for Cmax: plasma, read-out: Cmax (maximum concentration in the plasma)
[4] = Pharmacokinetics in rats (Table 1); assay type: in vivo; conditions: rat; for Cmax: plasma, read-out: Cmax (maximum concentration in the plasma); for half-life: in vivo, read-out: t/2 (halflife of the elimination) (converted)
Excerpt: (c) Cmax = maximum concentration in the plasma (1 mcg = 1.10^-5

M. kansasii K 367 = assay: MIC against atypical Mycobacteria, photochromogenic (Table II); assay type: cell-based; conditions: Mycobacterium kansasii, K367, read-out: MIC (minimum inhibitory concentration)
Excerpt: (§1) MIC = minimum inhibitory concentration (1 mcg = 1.10^-5 g)

M. aquae K 1165 = assay: MIC against atypical Mycobacteria, scotochromogenic (Table II); assay type: cell-based; conditions: read-out: MIC (minimum inhibitory concentration)
Excerpt: as §1

M. scrofulaceum K 1166 = assay: as above; assay type: cell-based; conditions: Mycobacterium scrofulaceum, K1166, read-out: MIC (minimum inhibitory concentration)
Excerpt: as §1

M. xenopei K 716 = assay: as above; assay type: cell-based; conditions: Mycobacterium xenopi, K716, read-out: MIC (minimum inhibitory concentration)
Excerpt: as §1

M. avium K 536 = assay: MIC against atypical Mycobacteria, non-photochromogenic (Table II); assay type: cell-based; conditions: Mycobacterium avium, K536, read-out: MIC (minimum inhibitory concentration)
Excerpt: as §1

M. intracellular K 181 = assay: as above; assay type: cell-based; conditions: read-out: MIC (minimum inhibitory concentration)
Excerpt: as §1

M. intracellular K 546 = assay: as above; assay type: cell-based; conditions: read-out: MIC (minimum inhibitory concentration)
Excerpt: as §1

M. intracellular K 550 = assay: as above; assay type: cell-based; conditions: read-out: MIC (minimum inhibitory concentration)
Excerpt: as §1

M. intracellular K 551 = assay: as above; assay type: cell-based; conditions: read-out: MIC (minimum inhibitory concentration)
Excerpt: as §1

M. intracellular K 653 = assay: as above; assay type: cell-based; conditions: read-out: MIC (minimum inhibitory concentration)
Excerpt: as §1

atypical Mycobacteria = assay: Antimicrobial activity in vitro against atypical Mycobacteria; assay type: cell-based, Mycobacterium; conditions: against a number of atypical Mycobacteria; vs rifampicin
Excerpt: This excellent activity is especially pronounced in group c, i.e. non-photochromogenic micro-organisms, which are among the most dangerous pathogens of AIDS infections.

[5] = Retention time in the organism / long-term activity; assay type: in vivo; conditions: for activity in respect of pharmacokinetics: vs known 3-piperazinyl-rifamycins; for retention time in the organism: vs rifampicin or compounds 1 to 4 of U.S. Pat. No. 4,005,077

| Structure (SMILES) | MIC [1] [mg/L] | ED50 [2] [mg/kg] | half-life [3] [h] | Cmax [3] [µg/mL] | Cmax [4] [µg/mL] | MIC (M. kansasii K 367) [mg/L] | MIC (M. aquae K 1165) [mg/L] | MIC (M. scrofulaceum K 1166) [mg/L] | MIC (M. xenopei K 716) [mg/L] | MIC (M. avium K 536) [mg/L] | MIC (M. intracellular K 181) [mg/L] | MIC (M. intracellular K 546) [mg/L] | MIC (M. intracellular K 550) [mg/L] | MIC (M. intracellular K 551) [mg/L] | MIC (M. intracellular K 653) [mg/L] | half-life [4] [h] | antimicrobial activity in vitro compared with rifampicin (atypical Mycobacteria) | activity in respect of pharmacokinetics [5] | retention time in the organism [5] |
| --- | --- | --- | --- | --- | --- | --- | --- | --- | --- | --- | --- | --- | --- | --- | --- | --- | --- | --- | --- |
| C=C(C)CN1CCN(c2c3c(O)c4c(O)c(C)c5c(c4c2O)C(=O)C(C)(OC=CC(OC)C(C)C(OC(C)=O)C(C)C(O)C(C)C(O)C(C)C=CC=C(C)C(=O)N3)O5)CC1 (stereo not drawn) [Compound 6] | 0.0003 (≈ 0.000359 µM) | 1 | 21 | 1.4 |  |  |  |  |  |  |  |  |  |  |  |  |  |  |  |
| CO[C@H]1/C=C/O[C@@]2(C)Oc3c(C)c(O)c4c(O)c(c(/C=N/N5CCN(C)CC5)c(O)c4c3C2=O)NC(=O)/C(C)=C\C=C\[C@H](C)[C@H](O)[C@@H](C)[C@@H](O)[C@@H](C)[C@H](OC(C)=O)[C@@H]1C [Rifampicin] | 0.003 (≈ 0.00365 µM) | 5.9 |  | 2.48 | 1.39 | 0.25 (≈ 0.304 µM) | 0.25 (≈ 0.304 µM) | 1 (≈ 1.22 µM) | 1 (≈ 1.22 µM) | 64 (≈ 77.8 µM) | 0.5 (≈ 0.608 µM) | 16 (≈ 19.4 µM) | 8 (≈ 9.72 µM) | 1 (≈ 1.22 µM) | 2 (≈ 2.43 µM) |  |  |  |  |
| COC1C=COC2(C)Oc3c(C)c(O)c4c(O)c(c(N5CCN(Cc6c(C)cc(C)cc6C)CC5)c(O)c4c3C2=O)NC(=O)C(C)=CC=CC(C)C(O)C(C)C(O)C(C)C(OC(C)=O)C1C (stereo not drawn) [A, 3-[4-(2,4,6-trimethylbenzyl)-piperazin-1-yl]-rifamycin SV] | 0.003 (≈ 0.00328 µM) | 4 | 47.4 | 2.95 | 1.51 | 0.015 (≈ 0.0164 µM) | 0.03 (≈ 0.0328 µM) | 0.03 (≈ 0.0328 µM) | 1 (≈ 1.09 µM) | 0.5 (≈ 0.547 µM) | 0.03 (≈ 0.0328 µM) | 0.125 (≈ 0.137 µM) | 0.25 (≈ 0.273 µM) | 0.25 (≈ 0.273 µM) | 0.125 (≈ 0.137 µM) | ~450 | several times greater than the antimicrobial activity exhibited by rifampicin | superior activity in respect of pharmacokinetics | appreciably longer than that of rifampicin or of compounds 1 to 4 |
| COC1C=COC2(C)Oc3c(C)c(O)c4c(O)c(c(N5CCN(Cc6ccc(C)cc6)CC5)c(O)c4c3C2=O)NC(=O)C(C)=CC=CC(C)C(O)C(C)C(O)C(C)C(OC(C)=O)C1C (stereo not drawn) [Compound 3, 3-[4-(p-methylbenzyl)-piperazin-1-yl]-rifamycin SV] | 0.0001 (≈ 0.000113 µM) | 1.2 | 11.5 | 2.28 |  |  |  |  |  |  |  |  |  |  |  |  |  |  |  |
| COC1C=COC2(C)Oc3c(C)c(O)c4c(O)c(c(N5CCN(CC(C)C)CC5)c(O)c4c3C2=O)NC(=O)C(C)=CC=CC(C)C(O)C(C)C(O)C(C)C(OC(C)=O)C1C (stereo not drawn) [Compound 5, 3-(4-isobutylpiperazin-1-yl)-rifamycin SV] | 0.0001 (≈ 0.000119 µM) | 1 | 12 | 1.2 |  |  |  |  |  |  |  |  |  |  |  |  |  |  |  |
| COC1C=COC2(C)Oc3c(C)c(O)c4c(O)c(c(N5CCN(Cc6ccccc6C)CC5)c(O)c4c3C2=O)NC(=O)C(C)=CC=CC(C)C(O)C(C)C(O)C(C)C(OC(C)=O)C1C (stereo not drawn) [Compound 1, 3-[4-(o-methylbenzyl)-piperazin-1-yl]-rifamycin SV] | 0.001 (≈ 0.00113 µM) | 1.4 | 22.9 | 2.69 | 1.32 |  |  |  |  |  |  |  |  |  |  | 86 |  |  |  |
| COC1C=COC2(C)Oc3c(C)c(O)c4c(O)c(c(N5CCN(Cc6cccc(C)c6)CC5)c(O)c4c3C2=O)NC(=O)C(C)=CC=CC(C)C(O)C(C)C(O)C(C)C(OC(C)=O)C1C (stereo not drawn) [Compound 2] | 0.0003 (≈ 0.000339 µM) | 1.4 | 11.9 | 3.39 |  |  |  |  |  |  |  |  |  |  |  |  |  |  |  |
| COC1C=COC2(C)Oc3c(C)c(O)c4c(O)c(c(N5CCN(Cc6cccc7ccccc67)CC5)c(O)c4c3C2=O)NC(=O)C(C)=CC=CC(C)C(O)C(C)C(O)C(C)C(OC(C)=O)C1C (stereo not drawn) [B, 3-[4-(1-naphthylmethyl)-piperazin-1-yl]rifamycin SV] | 0.0003 (≈ 0.000325 µM) | 3 | 48.5 | 1.88 | 1.12 | 0.015 (≈ 0.0163 µM) | 0.03 (≈ 0.0325 µM) | 0.06 (≈ 0.0651 µM) | 0.5 (≈ 0.542 µM) | 1 (≈ 1.08 µM) | 0.125 (≈ 0.136 µM) | 1 (≈ 1.08 µM) | 1 (≈ 1.08 µM) | 1 (≈ 1.08 µM) | 0.25 (≈ 0.271 µM) | 111 | several times greater than the antimicrobial activity exhibited by rifampicin | superior activity in respect of pharmacokinetics | appreciably longer than that of rifampicin or of compounds 1 to 4 |
| COC1C=COC2(C)Oc3c(C)c(O)c4c(O)c(c(N5CCN(Cc6ccc(C(C)C)cc6)CC5)c(O)c4c3C2=O)NC(=O)C(C)=CC=CC(C)C(O)C(C)C(O)C(C)C(OC(C)=O)C1C (stereo not drawn) [Compound 4, 3-[4-(p-isopropylbenzyl)-piperazin-1-yl]-rifamycin SV] | 0.003 (≈ 0.00328 µM) | 1.5 | 20.4 | 1.81 |  |  |  |  |  |  |  |  |  |  |  |  |  |  |  |
